# Assay results from PubChem BioAssay AID1329 (NMMLSC, 2008).
# Calls of active or inactive are those of the source. No rule for the calls is given here.
# Molecular target: Induced myeloid leukemia cell differentiation protein Mcl-1 (Homo sapiens) (UniProt Q07820)
# Experiment: modulators of Bim peptide binding to Mcl-1, dose response, biochemical, bead-based flow cytometry, multiplexed, human (AID 1329)
# Details: Bim peptide-Mcl-1 binding, MCF
# Induced myeloid leukemia cell differentiation protein Mcl-1 (Homo sapiens), sequence (Q07820 whole entry, looked up): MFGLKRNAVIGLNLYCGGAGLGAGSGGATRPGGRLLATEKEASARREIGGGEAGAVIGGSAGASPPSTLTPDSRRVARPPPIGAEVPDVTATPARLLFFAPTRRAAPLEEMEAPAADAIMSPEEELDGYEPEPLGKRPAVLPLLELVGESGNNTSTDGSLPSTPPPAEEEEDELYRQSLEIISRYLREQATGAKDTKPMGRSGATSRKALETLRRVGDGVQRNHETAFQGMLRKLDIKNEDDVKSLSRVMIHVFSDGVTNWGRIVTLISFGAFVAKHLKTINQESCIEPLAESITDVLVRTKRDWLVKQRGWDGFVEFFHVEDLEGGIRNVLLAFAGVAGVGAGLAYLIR
row,SMILES,percent span
1,NC(=O)CSc1nnc(Cn2cnc3ccccc32)o1,inactive
2,CC(C)(C)C(=O)NC(NC(=S)Nc1ccc(S(N)(=O)=O)cc1)C(Cl)(Cl)Cl (centres undefined),inactive
3,CCC(=O)N(CC)C1=C(O)c2ccccc2C(=O)C1=O,inactive
4,CNC(=O)c1sc(-c2ccccn2)nc1C,inactive
5,NNC(=O)COc1ccccc1F,inactive
6,COc1ccc(CN(CC(=O)NC2CCCC2)C(=O)CCC(=O)Nc2cc(C)on2)cc1,inactive
7,Cc1cc(C)cc(NS(=O)(=O)c2ccc3c(c2)c(=O)n(C)c(=O)n3C)c1,inactive
8,Cc1cccc(N2C(S)=C(C#N)C(=O)NC2c2cccs2)c1 (centres undefined),inactive
9,CCOC(=O)c1nn(-c2ccccc2)c(C#N)c1N,inactive
10,Cc1cccc(/C=N/N(CCO)C2=NS(=O)(=O)c3ccccc32)c1,inactive
11,O=[N+]([O-])c1ccc(N/N=C/c2ccc(O)c(O)c2O)c(S(=O)(=O)N2CCOCC2)c1,inactive
12,O=C(Nc1nnc(COc2ccc(Cl)cc2)s1)c1ccco1,inactive
13,O=C(NCCO)c1ccc2nc(-c3ccco3)c(-c3ccco3)nc2c1,inactive
14,CCC(=O)NC(c1ccc(C)cc1)c1cc([N+](=O)[O-])c2cccnc2c1O (centres undefined),inactive
15,Cc1cc(C)n(CC(=O)N/N=C/c2cccc([N+](=O)[O-])c2)n1,inactive
16,CN(C)c1ccc(Nc2nc(-c3cccnc3)cs2)cc1,inactive
17,Cc1nonc1NC(=O)CSc1nnc(-c2ccoc2C)n1C,inactive
18,Cc1cc(C)c[n+](-c2nc3ccccc3nc2C(=C=[N-])C#N)c1,inactive
19,CCCn1c(C)cc(-c2csc(N)n2)c1C,inactive
20,O=c1c2c(-c3ccccc3)csc2nc2c3ccccc3c(NCCN3CCOCC3)nn12,inactive
21,O=C(O)c1ccc(NS(=O)(=O)c2ccc3c(c2)C(=O)c2ccccc2C3=O)cc1,inactive

row,SMILES,percent span
1,O=C(N/N=C/c1cccnc1)c1cccc(S(=O)(=O)N2CCCC2)c1,inactive
2,O=C(CSc1nnc(-c2ccco2)n1Cc1ccccc1)c1ccccc1,inactive
3,CCOC(=O)c1ccc(N=c2ssnc2Cl)cc1,inactive
4,Cc1nc(=S)c2ccccc2[nH]1,inactive
5,CCN1C(=O)/C(=C\C=C2/C=CC=CN2CC)SC1=S,inactive
6,C=CCn1c(SCC(=O)Nc2ccc3c(c2)OCO3)nnc1-c1cc(Br)ccc1O,inactive
7,COc1ccccc1Oc1ccc2c(c1)C(=O)N(c1ccccc1)C2=O,inactive
8,CNc1nc2ccccc2n1/N=C/c1cccc(OC)c1OC,inactive
9,O=C1/C(=C/c2cccs2)Sc2ccccc21,inactive
10,N#Cc1cc(-c2ccccc2)nn1-c1ccccc1,inactive
11,CN(C)CCNC(=O)C(=O)C1C(=O)Nc2ccccc21 (centres undefined),inactive
12,COc1ccc(CC(=O)Nc2ccccc2Oc2ccccc2)cc1,inactive
13,COc1ccc(N2C(=O)C(Cl)=C(Nc3c(C)n(C)n(-c4ccccc4)c3=O)C2=O)cc1,inactive
14,O=C(NCCCO)Nc1ccc2nc(-c3ccco3)c(-c3ccco3)nc2c1,inactive
15,O=C1c2ccccc2C(=O)N1CN(C(=O)COc1ccc(Cl)cc1Cl)c1cccc(F)c1,inactive
16,COC(=O)c1sc2nc[nH]c(=O)c2c1C,inactive
17,CN(C)c1cccc(NC(=O)C2(C)CC2(Cl)Cl)c1 (centres undefined),inactive
18,COc1ccc(N=C2NC(=O)/C(=C\C=C\c3ccco3)S2)cc1,inactive
19,Cn1c(=O)c2c(nc(NCCO)n2CCc2ccccc2)n(C)c1=O,inactive
20,COc1ccc(CCNC(=O)c2ccc3nc(-c4ccco4)c(-c4ccco4)nc3c2)cc1OC,inactive
21,CCCC(=O)OCCNc1cc(Sc2nccn2C)c2nonc2c1[N+](=O)[O-],inactive

row,SMILES,percent span
1,Cc1ccc(C)n1-c1ccc(N2CCOCC2)cc1,inactive
2,CC(=O)Nc1ccc2nc(CN3CCN(CC(C)C)C(CCO)C3)ccc2c1 (centres undefined),inactive
3,Cc1ccc(Nc2nc(-c3ccccc3)c(CC(=O)O)s2)cc1,inactive
4,CCc1ccc(NC(=O)Cc2ccc(OC)cc2)cc1,inactive
5,Cc1cccc(N2CCN(C(=S)Nc3ccc4nc(N5CCN(C)CC5)cc(C)c4c3)CC2)c1C,inactive
6,Cc1ccc(-c2cc(-c3ccc(F)cc3)c(C#N)c(N)n2)o1,inactive
7,COc1ccccc1OCc1ccc(C(=O)Nc2ccccc2F)cc1,inactive
8,CC(CCc1ccccc1)NC(=O)C1CCN(S(=O)(=O)N2CCCCC2)CC1 (centres undefined),inactive
9,O=C(COc1ccc(Br)cc1CNC1CCCCC1)NCCc1ccccc1,inactive
10,N/C(=N\N=C/c1ccc(Br)cc1)N/N=C\c1ccc(Br)cc1,inactive
11,CCOC(=O)C1CCN(C(=O)Nc2ccc3nc(-c4ccco4)c(-c4ccco4)nc3c2)CC1,inactive
12,CCCCOC(=O)c1nc(Cl)c(Cl)c(N)c1Cl,inactive
13,COCCn1nnnc1CN(Cc1ccco1)Cc1cc2cc3c(cc2[nH]c1=O)OCO3,inactive
14,CNc1ccccc(C(=O)/C=C/c2ccccc2OC)c1=O,inactive
15,CSc1n[nH]c2nc3c(c(=O)n12)C1(CCCC1)Cc1ccccc1-3,inactive
16,COc1ccc(N2CCN(C(CNS(=O)(=O)c3ccc4c(c3)OCCO4)c3ccco3)CC2)cc1 (centres undefined),inactive
17,COc1cccc2c1C(=O)C=C(C)C2=O,inactive
18,CC1Nc2ccccc2C(=O)N1NS(=O)(=O)c1ccccc1 (centres undefined),inactive
19,O=C(Cc1ccccc1)N/N=C/c1cccn1-c1ccc([N+](=O)[O-])cc1,inactive
20,COc1cc2[nH]c(=S)nc(NCCCOC(C)C)c2cc1OC,inactive

# Results, then the compound that gave them:
row,percent span,SMILES
1,inactive,COc1ccc(-n2c(SCC(=O)Nc3ccc(C(=O)O)cc3)nnc2-c2cccs2)cc1
2,inactive,Clc1ccc2c(N/N=C/c3ccc(Br)cc3)ccnc2c1
3,inactive,CN1C(=O)/C(=C/c2ccc(-c3ccccc3[N+](=O)[O-])o2)SC1=Nc1ccc(Cl)c(C(=O)O)c1
4,inactive,CCOc1ccccc1C(=O)NC1CC2CCCC(C1)N2C1CC1 (centres undefined)
5,inactive,Cc1ccc(C)c(/C=C/C(=O)c2ccccc(=O)c2O)c1
6,inactive,CCOC(=O)CSC1=NC(=O)/C(=C/c2ccc(OC)cc2)S1
7,inactive,COc1ccc(N2CCN(C(=O)c3cc(=O)[nH]c4ccccc34)CC2)cc1
8,inactive,Cn1cc(CN2C[C@]3(C)C[C@H]2CC(C)(C)C3)c(-c2ccc3c(c2)OCCO3)n1
9,inactive,CC1CCN(C2(O)C(=O)Nc3ccc(Br)cc32)CC1 (centres undefined)
10,inactive,CCOc1cc(C2Nc3cccc4cccc(c34)N2)ccc1O
11,inactive,Cc1ccc(-c2ccc(CCC(=O)O)n2NC(=O)c2cccs2)cc1
12,inactive,CCc1nn2cc(C(=O)c3cc(C)ccc3O)cnc2c1-c1ccc(F)cc1
13,inactive,O=C(/C=C/c1ccc(-c2ccccc2[N+](=O)[O-])o1)c1ccc(F)cc1
14,inactive,O=C(NCCN1CCOCC1)c1cc(Cl)ccc1[N+](=O)[O-]
15,inactive,O=C(NC1=C(Nc2ccc(Cl)cc2)C(=O)c2ccccc2C1=O)c1ccccc1
16,inactive,CCOC(=O)c1nc(Nc2ccc(Nc3ccccc3)cc2)c2ccccc2n1
17,inactive,CC(=O)OCCCNc1cc(Sc2nc3ccccc3s2)c2nonc2c1[N+](=O)[O-]
18,inactive,COc1ccc(NC(=O)/C(C#N)=C/c2c(C)nn(-c3ccc(F)cc3)c2Cl)cc1Cl
19,inactive,COc1ccc(C(=O)/C=C/c2cc(OC)c(O)c(OC)c2)c(F)c1
20,inactive,Cc1ccc(-c2n[nH]c(=S)n2-c2ccccc2)cc1
21,inactive,COc1ccc(C2=Nc3cccc4cccc(c34)N2)cc1

row,percent span,SMILES
1,inactive,Cc1ccc2cc(C)c(Sc3nnnn3-c3ccccc3)nc2c1
2,inactive,CN(CCO)c1cc(Sc2nc3ccccc3s2)c2nonc2c1[N+](=O)[O-]
3,inactive,COc1cccc(-n2nnnc2SCC(=O)Nc2cccc(NC(C)=O)c2)c1
4,inactive,O=C(NCCCN1CCN(CCCNC(=O)c2cc([N+](=O)[O-])ccc2Cl)CC1)c1cc([N+](=O)[O-])ccc1Cl
5,inactive,COc1cc(CNc2ccc(N3CCCC3)cc2)cc(Cl)c1OC
6,inactive,O=S1(=O)N=C(N(CCO)/N=C/c2ccccc2)c2ccccc21
7,inactive,CCOc1cc(/C=N/NC(=O)c2cccs2)cc([N+](=O)[O-])c1O
8,inactive,OCCN1CCN(CCCc2c3c(cc4c2CCC4)CCC3)CC1
9,inactive,Cn1c(=O)c2cc(S(=O)(=O)Nc3cc(C(=O)O)cc(C(=O)O)c3)ccc2n(C)c1=O
10,inactive,C/C(=C\c1ccco1)C1Nc2cccc3cccc(c23)N1
11,inactive,COc1cc(C=Nc2cccc(C)c2)c(O)c([N+](=O)[O-])c1
12,inactive,CCOc1cc(S(=O)(=O)Nc2ccccn2)ccc1F
13,inactive,COc1ccc(NC(=O)COc2ncnc3ccccc23)cc1S(=O)(=O)N1CCOCC1
14,inactive,Cc1csc(SCCn2c(N3CCN(c4ccccc4)CC3)nc3c2c(=O)[nH]c(=O)n3C)n1
15,inactive,COc1ccc(OC)c(-n2c(-c3ccc(C)cc3)n[nH]c2=S)c1
16,inactive,Cc1cc(NC(=O)CSc2nnc(-c3cccnc3)n2Cc2ccccc2)no1
17,inactive,Cc1cc(-c2csc(N)n2)c(C)n1CCC(C)C
18,inactive,COc1ccc(N2CCN(CCCNC(=O)CCCn3c(=O)[nH]c4ccsc4c3=O)CC2)cc1
19,inactive,Nc1ccc(N2CCCCCC2)cc1
20,inactive,CCC(=O)OCCNc1cc(Sc2nc3ccccc3[nH]2)c2nonc2c1[N+](=O)[O-]
21,inactive,C1=CC2c3ccccc3NC(c3ccncc3)C2C1 (centres undefined)
